Test results published in BindingDB's records for doi:10.1016/j.chembiol.2008.10.017 (University of Toronto, 2008).

Biological target: T1, Putative farnesyl pyrophosphate synthase (Cryptosporidium parvum (strain Iowa II), UniProt Q5CR09)
T1 sequence (Q5CR09 whole entry): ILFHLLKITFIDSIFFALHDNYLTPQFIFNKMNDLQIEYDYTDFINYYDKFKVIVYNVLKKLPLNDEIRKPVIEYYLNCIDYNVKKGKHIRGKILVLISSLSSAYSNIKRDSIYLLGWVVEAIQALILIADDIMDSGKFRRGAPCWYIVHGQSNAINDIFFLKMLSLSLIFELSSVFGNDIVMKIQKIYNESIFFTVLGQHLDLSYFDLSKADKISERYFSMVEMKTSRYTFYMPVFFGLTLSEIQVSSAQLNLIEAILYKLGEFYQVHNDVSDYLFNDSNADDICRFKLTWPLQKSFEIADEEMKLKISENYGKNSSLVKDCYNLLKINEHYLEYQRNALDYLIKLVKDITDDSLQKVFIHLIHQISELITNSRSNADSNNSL
Assay: Enzymatic Assay
Settings: pH 7.7; 37 °C
Protocol: Enzymatic assay using CpNPPPS was assayed using Reed and Rilling method with some modification.

IC50	Ki	Compound
30.1 nM	0.05 nM	O=P(O)(O)C(O)(Cn1ccnc1)P(=O)(O)O
45.7 nM	0.38 nM	O=P(O)(O)C(O)(Cc1cccnc1)P(=O)(O)O [JMC515594 Compound 64]
